# From ChEMBL document CHEMBL1137595, “Identification and optimisation of a series of substituted 5-(1H-pyrazol-3-yl)-thiophene-2-hydroxamic acids as potent histone deacetylase (HDAC) inhibitors” (Bioorg Med Chem Lett, 2007)
# Assay: Oral bioavailability after oral dosing at 5 mg kg-1
# Type: ADME, organism-based
# Details: mouse, in vivo
structure (smiles),measurement,value
O=C(NO)c1ccc(-c2ccn(CCNCc3ccc4c(c3)OCO4)n2)s1,bioavailability,10%
